Test results: US7608599B2, “Antiviral phosphoramidates” (Roche Palo Alto LLC, priority 2005, dated 2009)

What was measured:
[1] = system: HCV replicon RNA replication (Renilla luciferase HCV replicon cells 2209-23); assay: Renilla luciferase assay (HCV replicon); type: cell-based; details: 72 h; Huh7-derived replicon cell line 2209-23, three days incubation, luciferase readout
HIV = details: background, Ohrui et al.; cited from earlier work

Row | SMILES | IC50 [1] [nM] | anti-HIV activity (HIV)
1 | CC(C)OC(=O)[C@H](C)NP(=O)(OC[C@@]1(N=[N+]=[N-])O[C@@H](n2ccc(N)nc2=O)[C@H](O)[C@@H]1O)Oc1ccccc1 (stereo partly drawn) [Compound I-35, (S)-2-{[(2R,3S,4R,5R)-5-(4-Amino-2-oxo-2H-pyrimidin-1-yl)-2-azido-3,4-dihydroxy-tetrahydro-furan-2-ylmethoxy]-phenoxy-phosphorylamino}-propionic acid isopropyl ester] | 991 | 
2 | CCC(C)OC(=O)[C@H](C)NP(=O)(OC[C@@]1(N=[N+]=[N-])O[C@@H](n2ccc(N)nc2=O)[C@H](O)[C@@H]1O)Oc1ccccc1 (stereo partly drawn) [Compound I-28, (S)-2-{[(2R,3S,4R,5R)-5-(4-Amino-2-oxo-2H-pyrimidin-1-yl)-2-azido-3,4-dihydroxy-tetrahydro-furan-2-ylmethoxy]-phenoxy-phosphorylamino}-propionic acid sec-butyl ester] | 615 | 
3 | CC(C)OC(=O)[C@H](C)NP(=O)(OC[C@@]1(N=[N+]=[N-])O[C@@H](n2ccc(=O)[nH]c2=O)[C@H](O)[C@@H]1O)Oc1ccccc1 (stereo partly drawn) [Compound I-14, (S)-2-{[(2R,3S,4R,5R)-2-Azido-5-(2,4-dioxo-3,4-dihydro-2H-pyrimidin-1-yl)-3,4-dihydroxy-tetrahydro-furan-2-ylmethoxy]-phenoxy-phosphorylamino}-propionic acid isopropyl ester] | 864 | 
4 | CCOC(=O)[C@H](C)NP(=O)(OC[C@@]1(N=[N+]=[N-])O[C@@H](n2ccc(N)nc2=O)[C@H](O)[C@@H]1O)Oc1ccccc1 (stereo partly drawn) [Compound I-34, (S)-2-{[(2R,3S,4R,5R)-5-(4-Amino-2-oxo-2H-pyrimidin-1-yl)-2-azido-3,4-dihydroxy-tetrahydro-furan-2-ylmethoxy]-phenoxy-phosphorylamino}-propionic acid ethyl ester] | 382 | 
5 | C#C[C@]1(CO)O[C@@H](n2cc(C)c(=O)[nH]c2=O)[C@@H](O)[C@@H]1O [Compound 6b] |  | inactive
6 | C[C@H](NP(=O)(OC[C@@]1(N=[N+]=[N-])O[C@@H](n2ccc(=O)[nH]c2=O)[C@H](O)[C@@H]1O)Oc1ccccc1)C(=O)OCc1ccccc1 (stereo partly drawn) [Compound I-13, (S)-2-{[(2R,3S,4R,5R)-2-Azido-5-(2,4-dioxo-3,4-dihydro-2H-pyrimidin-1-yl)-3,4-dihydroxy-tetrahydro-furan-2-ylmethoxy]-phenoxy-phosphorylamino}-propionic acid benzyl ester] | 754 | 
7 | C#CC1(CO)OC(n2ccc(N)nc2=O)C(O)C1O (stereo not shown) [Compound 6a, 4-Ethynyl-cytarabine] |  | good anti-HIV activity
